Data reported in ChEMBL document CHEMBL1155645, “Microbial transformations of the antimelanoma agent betulinic acid” (2000).
In brackets after ≈: the same amount, converted by molar mass.

How the values were obtained:
[1] = Cytotoxicity against human Mel1 cells; assay type: functional; settings: read-out: ED50 (the source's name)
[2] = Cytotoxicity against human Mel2 cells; assay type: functional; settings: read-out: ED50 (the source's name)

Row | SMILES | EC50 [1] | EC50 [2]
1 | C=C(C)[C@@H]1CC[C@]2(C(=O)O)CC[C@]3(C)[C@H](CC[C@@H]4[C@@]5(C)CC[C@H](O)C(C)(C)[C@@H]5C[C@H](O)[C@]43C)[C@@H]12 | 17.1 µg/mL (≈ 36.2 µM) | 7.2 µg/mL (≈ 15.2 µM)
2 | C=C(C)[C@@H]1CC[C@]2(C(=O)O)CC[C@]3(C)[C@H](CC[C@@H]4[C@@]5(C)CC[C@H](O)C(C)(C)[C@@H]5[C@@H](O)[C@H](O)[C@]43C)[C@@H]12 | 10.9 µg/mL (≈ 22.3 µM) | 16.8 µg/mL (≈ 34.4 µM)
3 | C=C(C)[C@@H]1CC[C@]2(C(=O)O)CC[C@]3(C)[C@H](CC[C@@H]4[C@@]5(C)[C@H](O)C[C@H](O)C(C)(C)[C@@H]5C[C@H](O)[C@]43C)[C@@H]12 | > 20 µg/mL | > 20 µg/mL
4 | C=C(C)[C@@H]1CC[C@]2(C(=O)O)CC[C@]3(C)[C@H](CC[C@@H]4[C@@]5(C)CC[C@H](O)C(C)(C)[C@@H]5CC[C@]43C)[C@@H]12 [BETULINIC ACID] | 3.3 µg/mL (≈ 7.23 µM) | 1 µg/mL (≈ 2.19 µM)
5 | C=C(C)[C@@H]1CC[C@]2(C(=O)O)CC[C@]3(C)[C@H](CC[C@@H]4[C@@]5(C)CCC(=O)C(C)(C)[C@@H]5CC[C@]43C)[C@@H]12 [BETUNOLIC ACID] | 16 µg/mL (≈ 35.2 µM) | 0.1 µg/mL (≈ 0.22 µM)
